Assay results published in patent publication US10434112B2, “Use of agonists of formyl peptide receptor 2 for treating dermatological diseases” (Allergan, Inc., priority 2013, dated 2019).

How the values were obtained:
FPRL-1 = FPRL-1 (Homo sapiens (Human), UniProt P25090); experiment: FPRL-1 Ga16-CHO EC50 (efficacy); type: cell-based; conditions: value in brackets; for FPRL-1 Ga16-CHO (efficacy): Table 1; for FPRL-1 Gal16-CHO (efficacy): Table 3
[1] = test system: LL-37-induced inflammation in mouse ears; experiment: LL37-induced model of rosacea in mice (ear thickness); type: in vivo; conditions: topical application to ears; FIG. 2; p<0.05 vs. vehicle at all time points
Procedure: Prior to dosing, animals are lightly anaesthetized with isofluorane and baseline right and left ear thickness measurements are made with a digital caliper (Mitutoyo 293-340). At t=−1 hrs, animals are lightly anaesthetized with isoflurane to allow topical application (dorsal side) of 10 μL of FPR2 agonist formulated in a vehicle consisting of PBS:ethanol (50:50), or vehicle control to both ears. At t=0 hr, mice are re-anaesthetized. Following ear thickness measurements, 20 uL of LL-37 (100 μM) is injected into the right ear, while PBS is injected into the left ear. Additional ear thickness measurements are taken at t=3 and 6 hours. After the last time point, mice are euthanized by CO2 inhalation and ears collected for additional analyses.

human FPR2 receptor = human FPR2 receptor (Homo sapiens (Human), UniProt P25090); experiment: FLIPR Ca+2 response in HEK-Gα16 cells stably expressing the human FPR2 receptor; type: cell-based; design: FPR2 (% eff): unit not given here; conditions: Table 4; value in brackets, given mostly as fraction
Chain of human FPR2 receptor (P25090 whole entry): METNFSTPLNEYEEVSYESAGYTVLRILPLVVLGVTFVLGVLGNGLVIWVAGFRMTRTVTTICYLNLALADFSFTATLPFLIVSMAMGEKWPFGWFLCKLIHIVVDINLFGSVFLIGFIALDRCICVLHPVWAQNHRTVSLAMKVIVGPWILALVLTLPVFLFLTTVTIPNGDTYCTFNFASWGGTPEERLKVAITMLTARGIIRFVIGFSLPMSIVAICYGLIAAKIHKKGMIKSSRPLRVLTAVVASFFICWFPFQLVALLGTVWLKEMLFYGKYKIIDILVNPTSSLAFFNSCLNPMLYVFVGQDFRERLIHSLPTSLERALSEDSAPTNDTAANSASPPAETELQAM
In short: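 HEK-Gα16 cells stably expressing human FPR2, loaded with 2 μM Fluo-4 in HBSS/20 mM HEPES for 40 min at 37° C., then washed. Ligands added in HBSS/Hepes and Ca+2 responses recorded on FLIPR in relative fluorescence units.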

Chain of FPRL-1 (P25090 whole entry): as above

FPRL-1 Ga16-CHO (efficacy) (FPRL-1)	FPRL-1 Gal16-CHO (efficacy) (FPRL-1)	SMILES	other results
0.91	–	CC(C)[C@H](NC(=O)Nc1ccc(Br)cc1)C(=O)O [(2S)-2-({[(4-bromophenyl)amino]carbonyl}amino)-3-methylbutanoic acid]	–
0.90	–	COc1ccc(NC(=O)N[C@@H](Cc2ccccc2)C(=O)O)cc1 [(2S)-2-({[(4-methoxyphenyl)amino]carbonyl}amino)-3-phenylpropanoic acid]	–
0.97	–	O=C(Nc1ccc(C(F)(F)F)cc1)N[C@@H](Cc1ccccc1)C(=O)O [(2S)-3-phenyl-2-[({[4-(trifluoromethyl)phenyl]amino}carbonyl)amino]propanoic acid]	–
0.94	–	O=C(Nc1ccc(Br)cc1)N[C@H](C(=O)O)c1ccccc1 [(2S)-({[(4-bromophenyl)amino]carbonyl}amino) (phenyl)acetic acid]	–
0.89	–	CC[C@H](C)[C@H](NC(=O)Nc1ccc(Br)cc1)C(=O)O [(2S,3S)-2-({[(4-bromophenyl)amino]carbonyl}amino)-3-methylpentanoic acid]	–
–	–	CC[C@H](C)[C@H](NC(=O)Nc1ccc(Br)cc1)C(=O)NCC(=O)O [Compound 3, {[(2S,3S)-2-{[(4-bromophenyl)carbamoyl]amino}-3-methylpentanoyl]amino} acetic acid]	Anti-inflammatory activity in the LL-37-induced rosacea mouse model [1]: Anti-inflammatory activity; FPR2 (% eff) (human FPR2 receptor): 1.0
–	–	CC(C)C[C@H](NC(=O)Nc1ccc(Br)cc1F)C(=O)NCC(=O)O [Compound 7, {[(2S)-2-{[(4-bromo-2-fluorophenyl)carbamoyl]amino}-4-methylpentanoyl]amino} acetic acid]	Anti-inflammatory activity in the LL-37-induced rosacea mouse model [1]: Anti-inflammatory activity
–	–	CC(C)C[C@H](NC(=O)Nc1ccc(Br)cc1)C(=O)NCC(=O)O [Compound 8, {[(2S)-2-{[(4-bromophenyl)carbamoyl]amino}-4-methylpentanoyl]amino} acetic acid]	Anti-inflammatory activity in the LL-37-induced rosacea mouse model [1]: Anti-inflammatory activity
–	0.98	O=C(CN1C(=O)C2CC=CCC2C1=O)Nc1ccc(Br)cc1 (centres unmarked) [N-(4-bromophenyl)-1,3,3a,4,7,7a-hexahydro-1,3-dioxo-2H-isoindole-2-acetamide]	–
–	0.90	O=C(CN1C(=O)C2C3C=CC(C3)C2C1=O)Nc1ccc(Br)cc1 (centres unmarked) [N-(4-bromophenyl)-1,3,3a,4,7,7a-hexahydro-1,3-dioxo-4,7-methano-2H-isoindole-2-acetamide]	–
–	0.89	O=C(CN1C(=O)NC2(CCCCC2)C1=O)Nc1ccc(Br)cc1 [N-(4-bromophenyl)-2-(2,4-dioxo-1,3-diazaspiro[4.5]dec-3-yl)acetamide]	–
–	0.98	CCC1(CC)NC(=O)N(CC(=O)Nc2ccc(Br)cc2)C1=O [N-(4-bromophenyl)-2-(4,4-diethyl-2,5-dioxoimidazolidin-1-yl)acetamide]	–
–	0.94	CC1(C)NC(=O)N(CC(=O)Nc2ccc(Br)cc2)C1=O [N-(4-bromophenyl)-2-(4,4-dimethyl-2,5-dioxoimidazolidin-1-yl)acetamide]	–
